Columns and labels:
Assay type in all cases: in vivo
[1] = system: test plants; assay: Pre-emergence test/greenhouse; conditions: greenhouse, 250 g/ha, rated after three weeks vs untreated control, 0%=no action, 100%=total destruction
Experimental: [table] To produce a suitable preparation of active compound, 1 part by weight of active compound is mixed with the stated amount of solvent, the stated amount of emulsifier is added and the concentrate is diluted with water to the desired concentration. Seeds of the test plants are sown in normal soil and, after 24 hours, watered with the preparation of the active compound. It is expedient to keep constant the amount of water per unit area The concentration of the active compound in the preparation is of no importance, only the amount of active compound applied per unit area being decisive. After three weeks, the degree of damage to the plants is rated in % damage in comparison to the development of the untreated control. The figures denote: • 0%=no action (like untreated control) 100%=total destruction [table]

[2] = system: mustard beetle larvae (Phaedon cochleariae); assay: Phaedon larvae test; conditions: after 7 days; active compound concentration 0.1%; dipped cabbage leaves
Experimental: (§1) [table] To produce a suitable preparation of active compound, 1 part by weight of active compound is mixed with the stated amount of solvent and the stated amount of emulsifier, and the concentrate is diluted with water to the desired concentration. Cabbage leaves (Brassica oleracea) are treated by being dipped into the preparation of the active compound of the desired concentration and are infested with mustard beetle larvae (Phaedon cochleariae) while the leaves are still moist. After the specified period of time, the destruction in % is determined. 100% means that all the beetle larvae have been killed; 0% means that none of the beetle larvae have been killed.

[3] = system: green rice leafhopper (Nephotettix cincticeps); assay: Nephotettix test; conditions: after 6 days; active compound concentration 0.1%; dipped rice seedlings
Experimental: [table] To produce a suitable preparation of active compound, 1 part by weight of active compound is mixed with the stated amount of solvent and the stated amount of emulsifier, and the concentrate is diluted with water to the desired concentration. Rice seedlings (Oryza sativa) are treated by being dipped into the preparation of active compound of the desired concentration and are infested with the green rice leafhopper (Nephotettix cincticeps) while the seedlings are still moist. After the specified period of time, the destruction in % is determined. 100% means that all the leafhoppers have been killed; 0% means that none of the leafhoppers have been killed.

[4] = system: caterpillars of the diamond-back moth (Plutella maculipennis); assay: Plutella test; conditions: after 7 days; active compound concentration 0.1%; dipped cabbage leaves
Experimental: as §1, with “preparation of active compound” for “preparation of the active compound”, “infested with caterpillars of the diamond-back moth (Plutella maculipennis) while the” for “infested with mustard beetle larvae (Phaedon cochleariae) while the”, “all the caterpillars have been” for “all the beetle larvae have been”, “of the caterpillars have been” for “of the beetle larvae have been”

[5] = system: greenhouse red spider mite or two-spotted spider-mite (Tetranychus urticae); assay: Tetranychus test (OP-resistant/immersion treatment); conditions: after 13 days; active compound concentration 0.1%; immersion treatment of bean plants
Experimental: [table] To produce a suitable preparation of active compound, 1 part by weight of active compound is mixed with the stated amount of solvent and the stated amount of emulsifier, and the concentrate is diluted with water to the desired concentrations. Bean plants (Phaseolus vulgaris) which are severely infested with all development stages of the greenhouse red spider mite or two-spotted spider-mite (Tetranychus urticae) are immersed in a preparation of active compound of the desired concentration. After the specified period of time, the destruction in % is determined. 100% means that all the spider mites have been killed; 0% means that none of the spider mites have been killed.

Row | SMILES | degree of damage, Alopecurus myosuroides [1] | degree of damage, Avena fatua [1] | degree of damage, Beta vulgaris [1] | degree of damage, Setaria viridis [1] | degree of damage, Sinapis arvensis [1] | destruction [2] | destruction [3] | destruction [4] | degree of damage, Amaranthus [1] | activity (destruction) [5]
1 | Cc1cc(Cl)cc(Cl)c1C1=C(OC(=O)C(C)C)C2(CCCCC2)NC1=O [Example I-1-b-8] | 95% | 50% | 0% | 100% | 100% |  |  |  |  | 
2 | Cc1cc(Cl)c(C2=C(O)C3(CCCC(C)C3)NC2=O)c(Cl)c1 (single isomer, unassigned) [Example I-1-a-8] | 100% | 40% |  | 100% | 100% | 100% | 100% |  |  | 
3 | Cc1cc(Cl)cc(Cl)c1C1=C(O)C2(CCCCC2)NC1=O [Example I-1-a-3] | 100% |  | 0% | 100% | 80% |  | 100% | 100% |  | 
4 | CC(=O)OC1=C(c2c(C)cc(Cl)cc2Cl)C(=O)NC12CCCC(C)C2 (single isomer, unassigned) [Example I-1-b-2] | 100% | 80% | 0% | 100% | 70% |  |  | 100% |  | 
5 | Cc1cc(Cl)c(C2=C(OC(=O)OCC(C)C)C3(CCCCC3)SC2=O)c(Cl)c1 [Example I-3-c-1] |  |  | 0% |  |  |  |  |  | 70% | 100%
6 | CCOC(=O)OC1=C(c2c(C)cc(Cl)cc2Cl)C(=O)NC12CCC(C)CC2 (single isomer, unassigned) [Example I-1-c-4] | 100% | 100% | 50% | 100% | 100% |  | 100% |  |  | 100%
7 | Cc1cc(Cl)c(C2=C(O)C3(CCCCC3)NC2=O)c(Cl)c1 [Example I-1-a-9] |  |  |  |  |  | 100% | 100% |  |  | 
8 | CCOC(=O)OC1=C(c2c(C)cc(Cl)cc2Cl)C(=O)NC12CCCCC2 [Example I-1-c-3] | 80% | 80% | 30% | 100% | 100% |  | 100% |  |  | 
9 | CCOC(=O)OC1=C(c2c(Cl)cc(C)cc2Cl)C(=O)NC12CCCC(C)C2 (single isomer, unassigned) [Example I-1-c-7] | 100% | 80% | 0% | 100% | 80% |  |  |  |  | 
10 | CC(=O)OC1=C(c2c(C)cc(Cl)cc2Cl)C(=O)NC12CCC(C)CC2 (single isomer, unassigned) [Example I-1-b-10] | 100% | 100% | 20% | 100% | 100% |  | 100% |  |  | 100%
11 | Cc1cc(Cl)cc(Cl)c1C1=C(OC(=O)C(C)C)C2(CCC(C)CC2)NC1=O (single isomer, unassigned) [Example I-1-b-11] | 95% | 40% | 30% | 100% | 90% |  |  |  |  | 
12 | Cc1cc(Cl)cc(Cl)c1C1=C(OC(=O)OCC(C)C)C2(CCC(C)CC2)NC1=O (single isomer, unassigned) [Example I-1-c-13] |  |  |  |  |  |  | 100% |  |  | 
13 | Cc1cc(Cl)cc(Cl)c1C1=C(O)C2(CCCCC2)SC1=O [Example I-3-a-3] |  |  |  |  |  | 100% |  | 100% |  | 
14 | CCC1(C)SC(=O)C(c2c(C)cc(Cl)cc2Cl)=C1O (stereo not shown) [Example I-3-a-1] |  |  |  |  |  | 100% |  | 100% |  | 
15 | Cc1cc(Cl)c(-c2c(O)c(C)c(C3CCCC3)oc2=O)c(Cl)c1 [I-5-a-7] | 80% |  | 0% |  | 95% |  |  |  |  | 
16 | Cc1cc(Cl)c(C2=C(OC(=O)C(C)C)C3(CCCC(C)C3)NC2=O)c(Cl)c1 (single isomer, unassigned) [Example I-1-b-20] | 95% |  | 30% | 90% | 80% |  |  |  |  | 
17 | Cc1cc(Cl)cc(Cl)c1C1=C(OC(=O)c2ccc(Cl)cc2)C2(CCC(C)CC2)NC1=O (single isomer, unassigned) [Example I-1-b-12] | 100% | 80% | 20% | 100% | 95% |  |  |  |  | 
18 | Cc1cc(Cl)c(C2=C(O)C(C)(C(C)C)NC2=O)c(Cl)c1 (stereo not shown) [Example I-1-a-11] |  |  |  |  |  | 100% | 100% |  |  | 
19 | CCOC(=O)OC1=C(c2c(C)cc(Cl)cc2Cl)C(=O)NC12CCCC(C)C2 (single isomer, unassigned) [Example I-1-c-2] |  |  |  |  |  |  |  | 100% |  | 
20 | CCOC(=O)OC1=C(c2c(Cl)cc(C)cc2Cl)C(=O)NC12CCC(C)CC2 (single isomer, unassigned) [Example I-1-c-6] | 100% | 100% |  | 100% | 95% |  |  |  |  | 
21 | Cc1cc(Cl)cc(Cl)c1C1=C(O)C2(CCC(C)CC2)NC1=O (single isomer, unassigned) [Example I-1-a-4] | 100% | 100% | 0% | 100% | 95% |  | 100% | 100% |  | 
22 | Cc1cc(Cl)c(C2=C(O)C3(CCCCC3)SC2=O)c(Cl)c1 [Example I-3-a-2] |  |  | 0% |  |  | 100% | 100% |  | 60% | 100%
23 | Cc1cc(Cl)c(C2=C(O)C3(CCOCC3)NC2=O)c(Cl)c1 [Example I-1-a-10] |  |  |  |  |  | 100% |  |  |  | 100%
24 | CCOCC(=O)OC1=C(c2c(C)cc(Cl)cc2Cl)C(=O)NC12CCCC(C)C2 (single isomer, unassigned) [Example I-1-b-4] | 95% | 80% | 0% | 100% | 80% |  |  |  |  | 
25 | Cc1cc(Cl)cc(Cl)c1C1=C(O)C2(CCCC(C)C2)NC1=O (single isomer, unassigned) [Example I-1-a-2] | 100% | 90% | 0% | 100% |  | 100% | 100% |  |  | 
26 | COCC(C)C(=O)OC1=C(c2c(C)cc(Cl)cc2Cl)C(=O)NC12CCC(C)CC2 (single isomer, unassigned) [Example I-1-b-13] | 100% | 80% | 30% | 100% | 90% |  |  |  |  | 
